Structures can show the parent of a compound that is named as a salt.
Each compound was assayed against T1, OR51E1 olfactory receptor (Homo sapiens, UniProt Q8TCB6) (assay: Inhibitory dose-response assay in a cell line expressing the butyric acid olfactory receptor OR51E1). Conditions: highly stringent screening conditions; cells treated with 67 μM butyric acid (EC94); read-out: calculated IC50, inhibitor of the butyric acid olfactory receptor OR51E1.
T1 construct: expressed in transfected cells
T1 sequence (Q8TCB6 1-318): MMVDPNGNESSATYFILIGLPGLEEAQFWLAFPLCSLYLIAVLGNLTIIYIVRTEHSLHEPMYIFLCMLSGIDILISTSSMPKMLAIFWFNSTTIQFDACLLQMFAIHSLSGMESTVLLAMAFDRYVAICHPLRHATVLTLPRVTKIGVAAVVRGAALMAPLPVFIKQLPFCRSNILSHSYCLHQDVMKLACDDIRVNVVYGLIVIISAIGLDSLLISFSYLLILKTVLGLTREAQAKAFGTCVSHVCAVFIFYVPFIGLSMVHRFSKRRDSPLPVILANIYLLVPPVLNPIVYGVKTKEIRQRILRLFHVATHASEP
Format: cell-based
In the case of `CC1CCCCC12CCCCC2O` (centres unmarked) [Compound 12, 11-methylspiro[5.5]undecan-5-ol], the IC50 is reported as 805 µM.
`CC(=O)OC1C(C)(C)CCCC12C(C)C=CCC2C` (centres unmarked) [Compound 3, (1,5,10,10-tetramethylspiro[5.5]undec-3-en-11-yl) acetate] was tested, and the IC50 was 4.74 µM.
Work on `CC(=O)OC1C(C)(C)CCCC12CC=CC2` (centres unmarked) [Compound 7, (9,9-dimethylspiro[4.5]dec-2-en-10-yl) acetate] yielded an IC50 of 84.3 µM.
With `CC(=O)OC1C(C)(C)CCCC12CC(C)=C(C)C2` (centres unmarked) [Compound 2, (2,3,9,9-tetramethylspiro[4.5]dec-2-en-10-yl) acetate] the IC50 was 18.6 µM.
Work on `CC(=O)O[C@@H]1C(C)(C)CCC[C@]12CC=C(C)C[C@H]2C` (racemic) [Compound 1, (1RS,6RS,11RS)-2,2,9,11-tetramethylspiro[5.5]undec-8-en-1-yl acetate] yielded an IC50 of 45.2 µM.
In the case of `COC1C(C)(C)CCCC12CC=CC2` (centres unmarked) [Compound 8, 10-methoxy-9,9-dimethylspiro[4.5]dec-2-ene], the IC50 is reported as 193 µM.
For `CC(=O)O[C@H]([C@H]1CCCC[C@@H]1C)C(C)(C)C` (racemic) [Compound 14, (1RS)-2,2-dimethyl-1-[(1SR,2SR)-2-methylcyclohexyl]propyl acetate], the IC50 was 68.6 µM.
`CC(=O)OC1C(C)(C)CCCC12CC=C(C)CC2C` (centres unmarked) [Compound 6, (3,5,10,10-tetramethylspiro[5.5]undec-2-en-11-yl) acetate] was tested, and the IC50 was 78.1 µM.
`CC(=O)OC(C1C(C)C=C(C)CC1C)C(C)(C)C` (centres unmarked) [Compound 17, [2,2-dimethyl-1-(2,4,6-trimethylcyclohex-3-en-1-yl)propyl]acetate] gave an IC50 of 43.4 µM.
For `CC1CC=CCC12CCCC(C)(C)C2OC=O` (centres unmarked) [Compound 5, (5,10,10-trimethylspiro[5.5]undec-2-en-11-yl) formate], the IC50 was 46.9 µM.

Same assay, conditions: table; butyric acid at EC80, EC87, EC90, or EC100; read-out: IC50
For `CC(=O)O[C@H]([C@H]1CCCC[C@@H]1C)C(C)(C)C` (racemic) [Compound 14, (1RS)-2,2-dimethyl-1-[(1SR,2SR)-2-methylcyclohexyl]propyl acetate], the IC50 was 170 µM.
